Data on 20 compounds can be found in ChEMBL document CHEMBL1201862, “PubChem BioAssay data set” (2004).

Activity calls are given as the source filed them. Where only a bound is given, the exact number is not on record here.

Assay [1] can be described thus: HIV-1 Vif–A3G interaction blockers – biochemical, TR-FRET, GST-Vif 1-94, biotin-A3G peptide, dose response retest, primary screen (AID 1117319).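 Note: TR-FRET signal of purified GST-Vif binding a biotinylated A3G peptide; inhibitors lower the FRET signal by blocking Vif and A3G binding.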 The class given is functional.
For assay [2], the target named is T1, RNA-binding protein pos-1 (Caenorhabditis elegans, UniProt G5EF15).
T1 sequence (G5EF15 whole entry): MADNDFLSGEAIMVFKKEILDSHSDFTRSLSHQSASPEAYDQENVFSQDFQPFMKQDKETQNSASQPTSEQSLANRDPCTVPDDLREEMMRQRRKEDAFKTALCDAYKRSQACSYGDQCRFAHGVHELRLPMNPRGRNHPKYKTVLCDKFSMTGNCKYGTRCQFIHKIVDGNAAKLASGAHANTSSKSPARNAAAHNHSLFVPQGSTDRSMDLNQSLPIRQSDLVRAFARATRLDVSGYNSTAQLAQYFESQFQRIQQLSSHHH
The assay can be described thus: disruptors of C. elegans POS-1 RNA interaction – biochemical, fluorescence polarization, dose response (AID 1964).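 Note: purified POS-1 fused to maltose binding protein made in E. coli; potency of compounds blocking POS-1 binding to fluorescent RNA.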

Assay [3] concerns the target T2, Zinc finger protein mex-5 (Caenorhabditis elegans, UniProt Q9XUB2).
T2 sequence (Q9XUB2 whole entry): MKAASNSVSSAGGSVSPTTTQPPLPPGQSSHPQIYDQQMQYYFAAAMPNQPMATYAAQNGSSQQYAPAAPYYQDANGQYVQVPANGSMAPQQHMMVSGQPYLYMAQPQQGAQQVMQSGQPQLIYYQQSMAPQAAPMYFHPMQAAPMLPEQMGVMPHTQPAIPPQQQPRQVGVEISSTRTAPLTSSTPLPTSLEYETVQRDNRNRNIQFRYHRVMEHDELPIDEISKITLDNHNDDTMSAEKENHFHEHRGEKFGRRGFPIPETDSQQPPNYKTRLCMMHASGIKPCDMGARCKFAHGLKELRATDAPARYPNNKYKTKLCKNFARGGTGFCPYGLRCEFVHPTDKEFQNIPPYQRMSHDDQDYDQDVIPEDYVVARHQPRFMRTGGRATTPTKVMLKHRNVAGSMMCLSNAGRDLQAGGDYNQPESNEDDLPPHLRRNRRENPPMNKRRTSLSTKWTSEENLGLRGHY
Nature of the assay: potency of MEX-5 RNA-binding blockers – biochemical, C. elegans, fluorescence polarization, dose response (AID 1960).

Assay [4] deals with Voltage-dependent T-type calcium channel subunit alpha-1H (Homo sapiens, UniProt O95180). The class given is functional.
Sequence of Voltage-dependent T-type calcium channel subunit alpha-1H (O95180 whole entry, the tested form may be a part): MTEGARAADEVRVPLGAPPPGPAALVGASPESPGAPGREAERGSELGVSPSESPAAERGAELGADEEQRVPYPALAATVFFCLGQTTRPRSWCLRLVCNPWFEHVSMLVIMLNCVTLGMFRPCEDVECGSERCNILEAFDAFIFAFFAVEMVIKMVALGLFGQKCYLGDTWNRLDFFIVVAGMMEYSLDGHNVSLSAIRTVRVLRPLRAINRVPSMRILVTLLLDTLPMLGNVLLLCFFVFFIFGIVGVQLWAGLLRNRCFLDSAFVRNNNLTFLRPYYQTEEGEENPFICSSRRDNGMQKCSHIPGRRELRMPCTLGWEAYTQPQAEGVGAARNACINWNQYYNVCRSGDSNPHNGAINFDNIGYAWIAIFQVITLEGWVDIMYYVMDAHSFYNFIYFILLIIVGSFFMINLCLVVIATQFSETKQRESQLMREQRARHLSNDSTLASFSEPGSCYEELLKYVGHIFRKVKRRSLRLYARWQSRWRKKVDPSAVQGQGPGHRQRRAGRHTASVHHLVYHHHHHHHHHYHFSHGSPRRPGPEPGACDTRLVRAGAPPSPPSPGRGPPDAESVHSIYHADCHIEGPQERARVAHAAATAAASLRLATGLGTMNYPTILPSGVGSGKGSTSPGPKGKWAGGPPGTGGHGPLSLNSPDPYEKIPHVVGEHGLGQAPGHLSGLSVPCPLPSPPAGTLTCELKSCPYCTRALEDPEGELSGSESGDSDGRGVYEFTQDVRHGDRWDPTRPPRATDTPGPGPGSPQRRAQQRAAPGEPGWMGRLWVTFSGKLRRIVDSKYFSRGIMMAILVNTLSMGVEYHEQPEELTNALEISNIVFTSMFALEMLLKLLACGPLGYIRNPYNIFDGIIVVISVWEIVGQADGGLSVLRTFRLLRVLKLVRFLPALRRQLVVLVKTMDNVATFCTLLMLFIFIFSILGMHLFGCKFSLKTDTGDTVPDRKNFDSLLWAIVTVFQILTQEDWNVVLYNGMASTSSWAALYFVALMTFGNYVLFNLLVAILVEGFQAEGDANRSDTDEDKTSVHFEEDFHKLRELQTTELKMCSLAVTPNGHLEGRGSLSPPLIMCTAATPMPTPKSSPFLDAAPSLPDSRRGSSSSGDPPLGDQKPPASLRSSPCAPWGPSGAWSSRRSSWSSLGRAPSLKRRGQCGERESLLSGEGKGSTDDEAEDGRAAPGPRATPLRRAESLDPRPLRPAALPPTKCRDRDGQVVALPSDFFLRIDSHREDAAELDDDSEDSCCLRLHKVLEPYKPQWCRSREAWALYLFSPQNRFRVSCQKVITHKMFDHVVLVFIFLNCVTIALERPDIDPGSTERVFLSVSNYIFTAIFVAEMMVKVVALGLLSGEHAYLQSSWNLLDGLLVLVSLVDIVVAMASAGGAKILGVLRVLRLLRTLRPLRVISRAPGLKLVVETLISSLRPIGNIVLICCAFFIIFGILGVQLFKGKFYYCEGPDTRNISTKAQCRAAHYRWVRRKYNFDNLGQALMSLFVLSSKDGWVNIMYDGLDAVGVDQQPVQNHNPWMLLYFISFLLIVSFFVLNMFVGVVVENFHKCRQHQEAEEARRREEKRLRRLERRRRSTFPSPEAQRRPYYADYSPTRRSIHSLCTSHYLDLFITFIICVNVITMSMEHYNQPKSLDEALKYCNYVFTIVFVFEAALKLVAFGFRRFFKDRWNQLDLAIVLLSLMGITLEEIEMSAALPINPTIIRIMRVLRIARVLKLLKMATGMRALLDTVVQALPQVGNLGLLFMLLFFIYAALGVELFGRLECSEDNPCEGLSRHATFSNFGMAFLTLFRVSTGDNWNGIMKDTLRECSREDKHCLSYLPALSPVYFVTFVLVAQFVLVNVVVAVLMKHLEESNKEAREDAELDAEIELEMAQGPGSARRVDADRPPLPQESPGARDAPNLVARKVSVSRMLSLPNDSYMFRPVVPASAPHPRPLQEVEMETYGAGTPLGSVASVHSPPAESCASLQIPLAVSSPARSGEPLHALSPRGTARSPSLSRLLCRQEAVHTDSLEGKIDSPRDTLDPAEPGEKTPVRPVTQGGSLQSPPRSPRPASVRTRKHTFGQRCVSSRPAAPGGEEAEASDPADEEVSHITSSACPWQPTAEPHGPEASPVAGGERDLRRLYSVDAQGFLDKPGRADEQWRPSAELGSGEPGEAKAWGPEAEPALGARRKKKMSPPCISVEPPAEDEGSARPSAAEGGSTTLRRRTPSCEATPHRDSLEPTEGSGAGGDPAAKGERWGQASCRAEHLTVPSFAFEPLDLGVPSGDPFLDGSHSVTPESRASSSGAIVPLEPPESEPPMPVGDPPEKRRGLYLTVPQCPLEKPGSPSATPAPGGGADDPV
Assay [5] concerns the target T3, Polyadenylate-binding protein 1 (Homo sapiens, UniProt P11940). Nature of the assay: MLLE domain peptide-binding blockers, IC50 – biochemical, fluorescence polarization, FITC-PAM2 peptide, dose response (AID 602259). The class given is functional. Particulars: read-out: IC50_Mean.
The next assay concerns Vero. Nature of the assay: cells. The class given is functional. Conditions: Chlorocebus sabaeus.
Assay [6] is described as follows: Vero E6 cell cytotoxicity, dose response, cytotoxicity control for non-replicating M. tuberculosis project, secondary assay (AID 492998). The class given is functional, VeroE6. Particulars: Vero C1008.
The nature of assay [7]: cells. The class given is functional.
A short description of assay [8]: THP-1 cell cytotoxicity, dose response, cytotoxicity control for non-replicating M. tuberculosis project (AID 489025). The class given is functional.
In assay [9] the target is T3, Polyadenylate-binding protein 1. The assay can be described thus: MLLE binding blockers, Cy5 peptide tracer – biochemical, fluorescence polarization, Cy5-PAM2 peptide, secondary, miRNA deadenylation inhibitor project, dose response (AID 602260). Particulars: read-out: IC50_Mean. The class given is functional.
For assay [10], the target named is T4, Short transient receptor potential channel 4 (Mus musculus, UniProt Q9QUQ5).
T4 sequence (Q9QUQ5 whole entry): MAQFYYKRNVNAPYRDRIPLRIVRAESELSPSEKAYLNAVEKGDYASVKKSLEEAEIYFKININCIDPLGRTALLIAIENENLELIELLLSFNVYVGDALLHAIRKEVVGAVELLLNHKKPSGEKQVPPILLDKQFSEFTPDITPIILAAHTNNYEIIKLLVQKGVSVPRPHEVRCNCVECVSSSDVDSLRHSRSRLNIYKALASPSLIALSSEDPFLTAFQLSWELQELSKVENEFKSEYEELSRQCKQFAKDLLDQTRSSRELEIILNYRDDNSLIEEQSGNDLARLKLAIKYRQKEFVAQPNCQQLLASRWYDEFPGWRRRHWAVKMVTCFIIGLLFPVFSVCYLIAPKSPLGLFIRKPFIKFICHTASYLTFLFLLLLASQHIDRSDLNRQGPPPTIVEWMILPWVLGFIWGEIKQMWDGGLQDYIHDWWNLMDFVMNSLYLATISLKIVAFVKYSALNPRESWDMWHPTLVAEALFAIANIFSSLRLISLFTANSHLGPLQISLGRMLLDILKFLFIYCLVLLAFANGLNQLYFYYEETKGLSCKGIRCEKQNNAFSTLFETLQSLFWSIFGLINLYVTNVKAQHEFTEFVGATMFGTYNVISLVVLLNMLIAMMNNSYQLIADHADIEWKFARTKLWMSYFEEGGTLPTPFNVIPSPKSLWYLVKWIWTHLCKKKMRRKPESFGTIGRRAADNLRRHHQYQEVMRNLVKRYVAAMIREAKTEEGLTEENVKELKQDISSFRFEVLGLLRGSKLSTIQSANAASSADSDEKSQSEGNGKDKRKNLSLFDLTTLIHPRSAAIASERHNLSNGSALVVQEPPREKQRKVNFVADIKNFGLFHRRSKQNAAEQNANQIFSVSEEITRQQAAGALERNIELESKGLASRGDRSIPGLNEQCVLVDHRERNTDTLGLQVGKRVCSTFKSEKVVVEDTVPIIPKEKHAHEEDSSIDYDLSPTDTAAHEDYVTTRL
Nature of the assay: calcium entry via TRPC4 opening agents – cell-based, HEK293 TRPC4/mu-opioid, Fluo-4 calcium, dose response (AID 434937). The class given is functional.

Assay [11] concerns the target T5, Heat shock factor protein 1 (Mus musculus, UniProt P38532).
T5 sequence (P38532 whole entry): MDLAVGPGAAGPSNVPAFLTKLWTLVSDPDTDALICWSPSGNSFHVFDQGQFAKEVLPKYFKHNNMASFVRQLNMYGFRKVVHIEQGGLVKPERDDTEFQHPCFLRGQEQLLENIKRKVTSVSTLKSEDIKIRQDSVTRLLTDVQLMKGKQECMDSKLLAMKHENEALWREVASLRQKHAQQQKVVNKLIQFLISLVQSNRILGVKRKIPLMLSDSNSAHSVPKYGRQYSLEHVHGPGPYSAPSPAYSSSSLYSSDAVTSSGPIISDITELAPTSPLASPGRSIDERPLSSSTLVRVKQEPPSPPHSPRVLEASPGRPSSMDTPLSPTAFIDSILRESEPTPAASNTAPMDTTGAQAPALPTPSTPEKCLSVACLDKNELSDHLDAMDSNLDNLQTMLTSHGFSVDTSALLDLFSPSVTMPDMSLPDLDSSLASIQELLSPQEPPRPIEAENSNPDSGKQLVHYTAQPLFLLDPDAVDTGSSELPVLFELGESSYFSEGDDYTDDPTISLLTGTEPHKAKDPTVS
The assay can be described thus: decrease of HSF1-responsive luciferase luminescence – cell-based, NIH3T3, dose retest, confirmation (AID 2382).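 Note: NIH3T3 fibroblasts with HSF1-driven luciferase reporter stressed by proteasome inhibitor MG132; luminescence from HSF1-driven luciferase expression after 8 hours of MG132 stress.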 The class given is functional.

Assay [12] can be described thus: reduced cellular PGC1a acetyl-lysine signal – cell-based, cherry-picked samples, dose response (AID 720514).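 Note: potency may reflect raised or lowered acetylation signal.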 The class given is functional.
In assay [13] the target is T6, Estrogen receptor beta (Homo sapiens, UniProt Q92731). Nature of the assay: blockers of SRC-3 recruitment to ERβ – biochemical, ELISA, streptavidin-HRP readout, orthogonal assay, confirmation (AID 1060).
T6 sequence (Q92731 whole entry): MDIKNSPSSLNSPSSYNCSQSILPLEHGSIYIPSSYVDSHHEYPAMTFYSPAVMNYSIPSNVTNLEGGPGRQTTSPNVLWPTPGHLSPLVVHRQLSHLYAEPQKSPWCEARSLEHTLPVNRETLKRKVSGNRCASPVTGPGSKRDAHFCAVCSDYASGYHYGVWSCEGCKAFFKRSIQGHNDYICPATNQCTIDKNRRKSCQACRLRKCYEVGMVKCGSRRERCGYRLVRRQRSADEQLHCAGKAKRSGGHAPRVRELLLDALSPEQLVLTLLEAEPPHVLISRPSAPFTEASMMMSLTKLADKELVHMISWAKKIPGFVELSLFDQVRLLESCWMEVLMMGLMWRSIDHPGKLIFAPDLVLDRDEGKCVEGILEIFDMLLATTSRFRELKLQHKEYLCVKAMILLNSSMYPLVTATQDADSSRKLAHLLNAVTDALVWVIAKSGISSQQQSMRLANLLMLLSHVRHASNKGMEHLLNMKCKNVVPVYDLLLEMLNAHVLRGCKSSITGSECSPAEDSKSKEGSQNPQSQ
The target of assay [14] is T6, Estrogen receptor beta.
The subject of the next assay is INS1. The assay can be described thus: INS-1E survival protection against cytokine death – cell-based, luminescence, retest, dose response (AID 449756).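 Note: cell death triggered by IL-1 beta plus TNF-alpha plus IFN-gamma mixture; protective hits raise ATP signal compared with cytokine alone wells.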 The class given is functional. Conditions: Rattus norvegicus.
Assay [15] addresses T7, Calpain-2 catalytic subunit (Sus scrofa, UniProt P43367).
T7 sequence (P43367 whole entry): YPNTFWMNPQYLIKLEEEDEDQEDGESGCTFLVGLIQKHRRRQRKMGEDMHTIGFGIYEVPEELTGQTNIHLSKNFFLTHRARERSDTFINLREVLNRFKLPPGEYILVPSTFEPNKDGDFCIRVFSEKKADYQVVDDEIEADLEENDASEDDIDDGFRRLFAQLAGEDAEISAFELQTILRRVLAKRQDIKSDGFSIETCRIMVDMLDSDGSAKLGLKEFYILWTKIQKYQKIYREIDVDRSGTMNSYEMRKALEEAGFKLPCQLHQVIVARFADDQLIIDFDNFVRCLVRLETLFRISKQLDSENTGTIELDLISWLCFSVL
The assay can be described thus: m-calpain protease blockers, concentration series – biochemical, fluorogenic peptide substrate, dose response (AID 1420). The class given is functional.

A short description of assay [16]: cells. The class given is functional, cell-based.
A short description of assay [17]: cells. The class given is functional, cell-based. This is another data set of the same source.
Assay [18] can be described thus: HepG2 cell cytotoxicity, dose response, cytotoxicity control for non-replicating M. tuberculosis project (AID 489018). The class given is functional. Particulars: Mycobacterium tuberculosis.
In assay [19] the target is T8, Oxysterols receptor LXR-beta (Homo sapiens, UniProt P55055).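 Note: Cell-based luminescence dose-response assay of agonist activity at LXR, run as a confirmatory counterscreen to a daf-12 agonist screen; HEK293 cells with Gal4-LXR fusion and GAL4-driven luciferase reporter; agonist potency from rising luciferase signal of a Gal4-LXR reporter.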
T8 sequence (P55055 whole entry): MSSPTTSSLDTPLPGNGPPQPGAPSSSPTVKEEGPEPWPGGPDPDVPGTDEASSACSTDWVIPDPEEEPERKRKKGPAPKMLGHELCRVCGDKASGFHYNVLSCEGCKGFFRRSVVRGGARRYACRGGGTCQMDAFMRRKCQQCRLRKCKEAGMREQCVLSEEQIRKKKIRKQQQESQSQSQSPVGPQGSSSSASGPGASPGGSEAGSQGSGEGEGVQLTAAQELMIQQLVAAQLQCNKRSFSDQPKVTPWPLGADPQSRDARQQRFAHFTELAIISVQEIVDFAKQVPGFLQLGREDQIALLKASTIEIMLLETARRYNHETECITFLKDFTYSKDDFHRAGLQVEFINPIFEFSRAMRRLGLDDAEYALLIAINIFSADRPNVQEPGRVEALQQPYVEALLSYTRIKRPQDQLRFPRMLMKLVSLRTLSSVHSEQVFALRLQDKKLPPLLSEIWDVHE
The class given is functional, cell-based.

Assay [20] in a line: cells.

T3 sequence (P11940 whole entry, the tested form may be a part): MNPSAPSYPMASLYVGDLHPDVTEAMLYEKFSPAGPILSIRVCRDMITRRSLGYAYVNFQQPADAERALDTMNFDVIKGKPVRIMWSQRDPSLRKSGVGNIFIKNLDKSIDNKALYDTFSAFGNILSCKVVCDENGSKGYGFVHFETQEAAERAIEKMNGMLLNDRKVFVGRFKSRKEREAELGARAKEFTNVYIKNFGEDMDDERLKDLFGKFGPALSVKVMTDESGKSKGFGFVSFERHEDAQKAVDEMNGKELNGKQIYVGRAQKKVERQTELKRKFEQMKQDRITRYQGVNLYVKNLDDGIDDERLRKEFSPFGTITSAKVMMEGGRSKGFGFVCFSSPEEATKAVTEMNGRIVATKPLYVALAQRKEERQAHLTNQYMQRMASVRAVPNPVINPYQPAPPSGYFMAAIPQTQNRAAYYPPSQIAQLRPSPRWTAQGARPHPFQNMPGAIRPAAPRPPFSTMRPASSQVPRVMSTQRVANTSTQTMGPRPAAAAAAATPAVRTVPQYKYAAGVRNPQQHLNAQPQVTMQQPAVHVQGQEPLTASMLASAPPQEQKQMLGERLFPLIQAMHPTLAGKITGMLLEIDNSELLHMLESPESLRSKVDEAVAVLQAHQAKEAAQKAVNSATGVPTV

For `CCOC(=O)C1Nc2ccc(Br)cc2C2C=CCC12` (stereo unspecified), in assay [1], the IC50 was > 100 µM (active). Also, the EC50 in assay [2] is > 300 µM (not active); in assay [3], 46 µM (active).
For `CCC(=O)N1CCN(c2ccc(Cl)cc2NC(=O)Cc2ccccc2)CC1`, in assay [4], the EC50 is 10.1 µM (active).
Take `CCN1CSC(=S)N(Cc2ccc(OC)cc2)C1`: the IC50 in assay [5] is > 66 µM (inactive); in the assay “cells [7]”, 11.8 µM (active); in assay [9], > 66 µM (inactive). Moreover, the half-maximal cytotoxic concentration (CC50) in the assay with Vero was 12.1 µM (active); in [6], 6.33 µM (active); in assay [8] it was 9.8 µM (active).
Take `Cc1ccc(OCC(=O)N(C)CCc2ccccn2)cc1`: in assay [10], the EC50 was 6.68 µM (active).
With `CCN1C(=O)CS/C1=C(\C#N)S(=O)(=O)c1ccccc1`, in [1], the IC50 is > 100 µM (active).
Turning to `Cc1cc2ncn(CCCCOc3ccccc3)c2cc1C`, the EC50 in assay [4] is 7.27 µM (active).
Consider `CC(C)(C)c1ccccc1NC(=O)NC1CCN(Cc2c(F)cccc2Cl)CC1`, for which the values for the EC50 in assay [11] and in assay [10] were > 195 µM (not active) and 2.11 µM (active), respectively.
Take `CCc1c(C)sc(NC(=O)c2cc(-c3ccco3)on2)c1C#N`: in assay [1], the IC50 was > 100 µM (active).
Consider `CCCCN(CCCC)S(=O)(=O)c1ccc(C(=O)Nc2nnc(CSC)o2)cc1`, for which the EC50 in assay [4] is 2.82 µM (active).
For the compound `Cc1noc(C)c1CCC(=O)NC1CCCN(Cc2ccc(CC(C)C)cc2)C1` (stereo unspecified), the EC50 in assay [10] is 3.76 µM (active).
On to `CCOC(=O)CSc1nnc(-c2ccccc2NC(=O)c2ccccc2)o1`, for which the IC50 in assay [1] is > 100 µM (active).
The same measure, in the same setting: the figure for `CC(=O)Nc1c(O)nc(SCC(=O)Nc2ccc(C(C)=O)cc2)nc1O` is > 100 µM (active).
As for `Cc1nn(Cc2ccc(Cl)c(Cl)c2)c(C)c1NC(=O)c1cc(CC(C)C)on1`, the 50% effective concentration (EC50) in [4] is 1.28 µM (active).
Turning to `COc1ccccc1C1c2c(C)nn(-c3ccccc3)c2NC(=O)C1NC(=O)c1ccccc1` (stereo unspecified), the AC50 in assay [12] is 23.5 µM (active).
For `CCOC(=O)Cc1csc(NC(=O)Cc2cccs2)n1`, the IC50 against Estrogen receptor beta [13] is 3.22 µM (not active); at Estrogen receptor beta [14], 5.81 µM (active).
With `CN(C)C(CNC(=O)CCS(=O)(=O)c1ccccc1)c1ccccc1` (stereo unspecified), in assay [10], the half-maximal effective concentration (EC50) is 0.376 µM (active).
Consider `COc1ccc(C(=O)N/N=C(\c2ccccc2)c2ccccn2)cc1`, for which the AC50 in the assay with INS1 is 1.18 µM (active). Further, the IC50 in assay [15] was > 50 µM (not active); in the assay “cells [7]”, 8.09 µM (active). Also, the CC50 with Vero is 3.02 µM (active); in [6], 2.39 µM (active); in assay [8], 0.517 µM (active); in [18], 9.02 µM (active). Besides, the EC50 is 10.3 µM (active) in “cells [16]” and 38.6 µM (active) in “cells [17]”.
In the case of `Cc1ccc(/N=N/c2c(C)[nH]n(C(N)=S)c2=O)cc1C`, the EC50 (in assay [19]; in the assay “cells [20]”) was > 67.5 µM (inactive) in each case. In addition, the IC50 in the assay “cells [7]” was 10.1 µM (active). Also, in assay [18], the CC50 was > 20 µM (active).
Take `Cc1[nH]n(C(N)=S)c(=O)c1/N=N/c1ccc(Br)cc1`: the EC50 (in [19]; in the assay “cells [20]”) was > 67.5 µM (inactive) in each case.
Turning to `COc1ccccc1C#Cc1ccc2c(c1)O[C@@H](CN(C)Cc1cccnc1)[C@H](C)CN([C@@H](C)CO)S2(=O)=O`, in [12], the AC50 is 2.25 µM (active).
